In patent US20180353445A1, “METHODS AND COMPOSITIONS RELATING TO PROTEASOME INHIBITOR RESISTANCE” (Whitehead Institute for Biomedical Research, priority 2017, published 2018):

Assays:
Assay type in all cases: cell-based, human
[1] = tested on: IMR32 (reduced PSMD5) and Kelly neuroblastoma cells; assay: Viability of IMR32 versus Kelly neuroblastoma cells (CellTiter-Glo); details: ABT-263 versus more specific BCL2, BCL-XL and MCL-1 inhibitors
Procedure: To determine whether these compounds also differentially affect cells with reduced expression of PSDMS, IMR32 and Kelly cells were each cultured in the presence of ABT-263, disulfiram, or elesclomol across a range of concentrations. Cell viability was measured by CellTiter-Glo® Luminescent Cell Viability Assay 72 hours after addition of the compound to cells. The fold viability relative to culture in the absence of the compound was determined for each cell line. […] In the experiment shown in FIG. 24, the lowest lower concentration of ABT-263 and disulfiram tested was 1 uM.
ABT-263 targets several members of the BCL2 family, including BCL2 and BCL-XL.

T47D cells [2] = assay: The glucose/galactose drug screen; details: 10 mM Glucose or Galactose, Selleck anti cancer and natural product libraries
Procedure: We conducted a second set of drug screens to identify unique sensitivities conferred by the Hi-OXPHOS state using parental T47D breast cancer cells (without 19S subunit suppression). For this screen, we used the NPC and CDL libraries as they contained the greatest number of hits in the Lo19S screen. We tested over 800 compounds at multiple concentrations and measured their effects on relative cell growth/viability when cells were grown under aerobic glycolysis conditions (glucose-supplemented medium) or forced mitochondrial respiration conditions (galactose-supplemented medium).
The glucose/galactose drug screen—T47D cells growing in regular media were collected counted and after centrifugation cells were re-suspended in RPM1 media without glucose containing 10% dialyzed serum with the addition of either 10 mM glucose or 10 mM galactose, Cells were then plated at 1000 cells/well in 384-well opaque, white assay plates (Coming, N.Y.), 50 uL per well, and incubated overnight at 37°C./5% CO2. Application of the drug libraries and cell viability was executed as described above for the Lo19S drug screen.

[3] = tested on: T47D cells with doxycycline inducible PSMD2 KD (Lo19S) versus control cells; assay: Lo19S T47D drug screen (PSMD2 KD versus control cells, CellTiter-Glo); details: for viability of PSMD2 KD versus control cells: Selleck natural product library (NPC) and NIH bioactive compound library, selectivity less than for the anti-cancer library hits; for viability of PSMD2 KD versus control cells (log2 (shPSMD2/Control)): T47D, Lo19S state by dox-inducible PSMD2 shRNA, compound library screen, 72 h, CellTiter-Glo
Procedure: The effect of each drug on viability of cells was calculated by averaging the duplicate experiments. The data is plotted in FIG. 16 as the log2 of the ratio of viability of PSMD2 KD versus control cells (log2 (shPSMD2/Control)). […] The Selleck natural product library (NPC) comprising 502 compounds in 5 doses and the. NIH bioactive compound library that includes 731 compounds in 4 doses were also screened using the same system.
A deeper understanding of the proteasome inhibitor resistant state could yield insights into the molecular mechanisms activated by cells to cope with proteotoxic stress and elucidate new therapeutic strategies for cancer. With these goals in mind, we screened mechanistically diverse small molecule libraries to identify compound sensitivities altered by the Lo19S and Hi-OXPHOS states. An initial screen was conducted in the isogenic T47D model with transient induction of the Lo19S state as described above, We evaluated >4300 mechanistically well-defined compounds within 4 libraries. The compounds included approved cancer drugs (Selleck anti-cancer library: CDL), common natural products (Natural product library: NPC) and an ^-NIH bioactives library (NIH). Each of these compounds was tested at ≥4 concentrations. (Table S5, data not shown), An additional 2866 compounds from the Boston University's Chemical Methodology and Library Development (CMLD-BU) small molecule collection was screened at a single dose (BULL, see Table S5).
Generation of the Lo19S T47D cell line—For the generation of the T47D Tet-inducible PSMD2 knockdown cell line—the TRIPZ vector with an inducible shRNA targeting PSMD2 was purchased from Dharmacon (clone V3THS_403760). It was introduced to the T47D cells according to manufactures protocol and cells were selected with puromycin […] for one week. The cells were exposed to doxycycline for 24 hours and cells were FACS sorted for the top 10% of most RFP expressing cells (highest expression of shRNA). The cells were further cultured in the absence of doxycycline and PSMD2 knockdown was induced as specified in the text.
After 48 hours the cells were collected counted and plated (in the absence of dox) at 1000 cells/well in 384-well opaque, white assay plates (Coming, NY), 50 uL per well, and incubated overnight at 37° C./5% CO2. Compound stocks from the Cancer drug library containing 349 bioactive compounds that were arrayed in dose 10 nM, 100 nM, 1 uM, 10 uM (Selleck anti-cancer compound library L3000), the natural products library containing 502 compounds that were utilized in 5 doses (dilution of 1:1000 of 2ug/ml, 0.2 ug/ml, 0.002/ug/ml, 0.0002 ug/ml), the NIH bioactive library including 731 drugs in dose of 10 nM, 100 nM, 1 uM, 10 uM and the Boston University's CMLD (Chemical Methodology and Library Development) compound deck containing 2866 compounds in one dose (10 uM), including novel chemotypes that uniquely probe three-dimensional space by employing stereochemical and positional variation within the molecular framework as diversity elements in library design. 50 nl of compounds were pin-transferred (V&P Scientific, CA, pin tool mounted onto Tecan Freedom Evo 150 MCA96 head, Tecan, Calif.) into duplicate assay plates and incubated for 72 h. The DMSO content was 0.1% within each well, Per plate, there are 32 wells of DMSO vehicle control and 32 wells of positive control compounds. After three days of incubation, 10 uL of CellTiter-Glo (Promega, Wis.) was added to each well, incubated for 10 minutes and the luminescence output was read on the M1000 Infinite Pro plate reader (Tecan, Calif.).

T47D cells [4] = assay: Drug library screen (Selleck anti-cancer, NPC, NIH bioactive), PSMD2 KD vs control T47D cells; details: Selleck anti-cancer compound library screen
Procedure: Schematic representation of the drug screen setup. (FIG. 37A) 147D cells harboring a doxycycline-inducible PSMD2 shRNA were grown in the presence or absence of doxycycline for 48 hr. Cells were then collected, washed, and plated in the absence of doxycycline for 24 hr prior to exposure different compounds. Relative cell numbers were measured 3 days later.
The relative viability of the Lo19S versus control cells was calculated for replica experiments and the log2 of the ratio is plotted. […] The relative viability of the respiring cells (Hi-OXPHOS) (gal) versus the control cells (glu) was calculated for replica experiments and the log2 of the ratio is plotted.
After 48 hours the cells were collected, counted, and plated at 1000 cells/well in 384 well plates in duplicates for each cell line. Compounds from the Selleck Chemicals anti-cancer compound library (349 drugs in 4 concentrations; […]) were pinned the next day and viability was measured after 72 hours by the reduction of Resazurin (Ex=530 run, Em=590nin). (See FIG. 37A for schematic of screen.)

## Cc1nn(C)c(COc2ccc(N3CCN(S(=O)(=O)N(C)C)CC3)cc2)c1-c1cccc2c(CCCOc3cccc4ccccc34)c(C(=O)O)n(CCN3CCOCC3)c12 [A-1210477]
[1]
  preferential sensitivity of IMR32 versus Kelly cells, compared among BCL2 family inhibitors: much greater for ABT-263

## COc1cc2c(cc1OC)[C@@H]1C(=O)c3ccc4c(c3O[C@@H]1CO2)C=CC(C)(C)O4 [Degeulin]
T47D cells [2]
  relative viability change of cells grown in glucose versus galactose: increased sensitivity

## CN1C(=O)[C@]23CC4=CC=C[C@H](O)[C@H]4N2C(=O)[C@@]1(CO)SS3 [Gliotoxin]
[3]
  viability of PSMD2 KD versus control cells: selectively toxic to cells with PSMD2 knockdown

## COc1ccc(-c2ccc3c(N4CCOCC4)nc(N4C[C@@H](C)O[C@@H](C)C4)nc3n2)cc1CO [Ku-0063794]
T47D cells [4]
  growth inhibition of T47D cells with reduced level of PSMD2 vs control T47D cells: selectively inhibit growth
[3]
  viability of PSMD2 KD versus control cells (log2 (shPSMD2/Control)): selectively reduce the viability of PSMD2 KD cells versus control cells

## CC[C@@H]1/C=C/C=C/C[C@H](C)[C@H](O)[C@](C)(O)C(=O)[C@H](C)[C@@H](O)[C@H](C)C(=O)[C@H](C)[C@@H](O)[C@H](C)/C=C/C(=O)O[C@H]2[C@@H](C)[C@@H](CC1)O[C@@]1(CC[C@@H](C)[C@@H](C[C@H](C)O)O1)[C@@H]2C [Oligomycin A]
T47D cells [2]
  relative viability change of cells grown in glucose versus galactose: increased sensitivity

## Nc1ccc2ncnc(NCCc3ccc(Oc4ccccc4)cc3)c2c1 [QNZ]
T47D cells [2]
  relative viability change of cells grown in glucose versus galactose: increased sensitivity

## C=C(C)[C@H]1Cc2c(ccc3c2O[C@@H]2COc4cc(OC)c(OC)cc4[C@@H]2C3=O)O1 [Rotenone]
T47D cells [2]
  relative viability change of cells grown in glucose versus galactose: increased sensitivity

## Nc1nc(Cl)nc2c1ncn2[C@H]1C[C@H](O)[C@@H](CO)O1 [cladribine, 2-chlorodeoxyadenosine]
T47D cells [4]
  growth inhibition of T47D cells with reduced level of PSMD2 vs control T47D cells: selectively inhibit growth
[3]
  viability of PSMD2 KD versus control cells (log2 (shPSMD2/Control)): selectively reduce the viability of PSMD2 KD cells versus control cells

## CCCCc1oc2ccccc2c1C(=O)c1cc(I)c(OCCN(CC)CC)c(I)c1 [cordarone]
[3]
  viability of PSMD2 KD versus control cells: selectively toxic to cells with PSMD2 knockdown
